Assay results reported in patent publication US20260285903A1, “SYNTHESIZED BIOLOGICALLY ACTIVE COMPOUNDS AND METHODS OF MAKING AND USING” (Georgia State University Research Foundation, Inc., priority 2023, published 2026).
In brackets after ≈: the same amount, converted by molar mass. Where two headings read alike, the source gives them in different places.

Experiments:
[1] = Thermodynamic (equilibrium) solubility; assay type: physicochemical; settings: read-out: thermodynamic (or equilibrium) solubility
From the text: The main reason for failure in drug development is poor biopharmaceutical properties, which include low aqueous solubility, chemical instability.
The biopharmaceutical properties of the synthesized M13 (5-glutathione-6-shogaol) were characterized.

SPHK2 = SPHK2 (Homo sapiens, UniProt Q9NRA0); assay: Radiometric 33P kinase assay, 17 Lipid Kinase Panel; assay type: biochemical; settings: 20 μM M13, 10 μM ATP; read-out: inhibition of enzyme activity relative to control
From the text: (§1) It was hypothesized that M13 may target kinases to reduce the inflammatory response. Determination and improvement of the selectivity of a compound by screening a large part of the kinome are of pivotal importance in the discovery of M13 signaling pathways for its anti-inflammatory activities. Radiometric assays were used based on the transfer of ^33P-labeled phosphate from ATP to the kinase substrates found in the 376 Wild Type Kinase Panel and 17 Lipid Kinase Panel (Reaction Biology) and a broad kinase selectivity screen for the inhibitory activity of M13 was performed. Briefly, radiometric assays are based on the transfer of 10 μM ^33P-labelled phosphate from ATP to the kinase substrate. […] FIGS. 2A and 2B show the targeted inhibitor effects of M13 on lipid kinases (FIG. 2A) and protein kinases (FIG. 2B).

CDK6 = CDK6 (Homo sapiens, UniProt Q00534); assay: Radiometric 33P kinase assay, 376 Wild Type Kinase Panel; assay type: biochemical; settings: 20 μM M13, 10 μM ATP; read-out: inhibition of enzyme activity relative to control
From the text: as §1

RIPK4 = RIPK4 (Homo sapiens, UniProt P57078); assay: as above; assay type: biochemical; settings: 20 μM M13, 10 μM ATP; read-out: inhibition of enzyme activity relative to control
From the text: as §1

TRKB = TRKB (Homo sapiens, UniProt Q16620); assay: as above; assay type: biochemical; settings: 20 μM M13, 10 μM ATP; read-out: inhibition of enzyme activity relative to control
From the text: as §1

NF-κB signaling pathway = assay: NF-κB-dependent luciferase activity in NF-κB/293/GFP-Luc cells treated with TNF-α; assay type: cell-based
Method: First, the anti-inflammatory activity of MLY compounds on the NF-κB signaling pathway was examined using the NF-xB/293/GFP-LucTnl cell line (System Biosciences). This cell line is specifically designed for use in quantitatively monitoring (by luciferase intensity) transcriptional activation related to the NF-κB signal transduction pathway in vitro. Treatment of NF-κB/293/GFP-Luc™ cells with 10 ng/ml TNF-α for 18 hours induced strong activation of the NF-κB signal transduction pathway (FIGS. 8A and 8B). […] MLY2 and MLY8 induced a strongest 90% reduction of NF-κB activation the anti-inflammatory effect of MLY 2 and 8 was dose-related (FIG. 9). The dose to reduce the NF-κB activation by 50% was […] for M13, 5 μM for MLY2 and 11 μM for MLY8 (FIG. 9).

human T lymphocytes = assay: Immunogenic effects on T lymphocytes in cultured PBMCs (flow cytometry); assay type: cell-based; settings: 20 μM, 4-day, vs SC and standard control
Method: (§2) PBMCs were provided by STEMCELL Technologies (STEMCELL Canada Inc.) and maintained in ImmunoCult™-XF T-cell Expansion Medium (Cat #10981). HIEC-6 cells were maintained in OptiMEM 1 Reduced Serum Medium supplemented with 20 mM HEPES, 10 mM GlutaMAX, 10 ng/mL Epidermal Growth Factor, 4% (v/v) fetal bovine serum (FBS), and 1% penicillin-streptomycin (PS). HCT-116 cells were maintained in ATCC-formulated McCoy's 5a medium, supplemented with 10% (v/v) FBS and 1% PS. Caco-2/BBe cells were grown in DMEM supplemented with 10% (v/v) FBS and 1% PS (v/v). Human colon cancer stem cells (HC-CSC) were maintained in complete growth media with serum and antibiotics (Cat #M36112-39S) from Celprogen Inc. (Torrance, CA, USA).
To evaluate the immunogenic effects of M13 on human T lymphocytes, PBMCs were cultured in blank medium (standard control), medium containing CD3/CD28 activator (positive control), medium containing solvent (solvent control, SC), and medium containing M13 solution (20 μM). All the groups were cultured in the presence or absence of interleukin-2 (IL-2). After a 4-day incubation, PBMCs were labeled with immunofluorescent dyes and analyzed using flow cytometry.

25 selected targets = assay: In vitro evaluation of safety and toxicity (InVEST) screening
Method: Safety screening of M13 was performed using an in vitro evaluation of safety and toxicity (InVEST). The effects of M13 was tested against 25 selected targets, including factors known to be involved in toxicity in humans.

HIEC-6 cells = assay: MTT viability assay, 2D culture; assay type: cell-based; settings: Homo sapiens
Method: as §2
(§3) The […] (MTT) assay was used to study the effects of M13 on the viability of four 2D-cultured human intestinal cell lines (HIEC-6, HCT-116, Caco-2/BBe, and HC-CSC).

Caco-2/BBe cells = assay: MTT viability assay, 2D culture; assay type: cell-based, human
Method: as §2, §3
Next, the anti-cancer activities of free M13, NL, and M13-NL were compared against Caco-2/BBe cells.

[2] = tested on: 3D-cultured Caco-2/BBe cells; assay: 3D droplet-based cell spheroid model, long-term cytotoxicity; settings: Homo sapiens, Caco-2, 264 h, 11 days
Method: To assess the long-term cytotoxicity of M13 against cancer cells, a 3D droplet-based Caco-2/BBe cell spheroid model was established using 3D printing. The diameter of the 3D cell spheres was approximately 1.65-1.75 mm. The 3D-cultured cells were incubated with different concentrations of M13 for 11 days, and droplet size (calculated using scanned images) and viability (live/dead cell staining and intracellular ATP) were analyzed (FIG. 12C). […] The cell viability of the M13-treated spheres was normalized as a percentage of the negative control (NC, 100% viable, without M13 treatment).

cancer-related proteins = assay: Proteome Profiler Human XL Oncology Array on Caco-2/BBe cell lysates; assay type: cell-based; settings: 24 hours
Method: The mechanism by which M13 exerts its anti-cancer effects was explored. Cell lysates of Caco-2/BBe cells incubated for 24 hours with free M13, NL, or M13-NL were hybridized on cancer-related protein array membranes (Proteome Profiler™ Human XL Oncology Array), and cell cycle control/phosphorylation profiling protein antibody microarray slides (Cell Cycle Control Phospho Antibody Array).

[3] = tested on: human colon cancer cells (HCT-116); settings: cited from earlier work

Chain of RIPK4 (P57078 whole entry): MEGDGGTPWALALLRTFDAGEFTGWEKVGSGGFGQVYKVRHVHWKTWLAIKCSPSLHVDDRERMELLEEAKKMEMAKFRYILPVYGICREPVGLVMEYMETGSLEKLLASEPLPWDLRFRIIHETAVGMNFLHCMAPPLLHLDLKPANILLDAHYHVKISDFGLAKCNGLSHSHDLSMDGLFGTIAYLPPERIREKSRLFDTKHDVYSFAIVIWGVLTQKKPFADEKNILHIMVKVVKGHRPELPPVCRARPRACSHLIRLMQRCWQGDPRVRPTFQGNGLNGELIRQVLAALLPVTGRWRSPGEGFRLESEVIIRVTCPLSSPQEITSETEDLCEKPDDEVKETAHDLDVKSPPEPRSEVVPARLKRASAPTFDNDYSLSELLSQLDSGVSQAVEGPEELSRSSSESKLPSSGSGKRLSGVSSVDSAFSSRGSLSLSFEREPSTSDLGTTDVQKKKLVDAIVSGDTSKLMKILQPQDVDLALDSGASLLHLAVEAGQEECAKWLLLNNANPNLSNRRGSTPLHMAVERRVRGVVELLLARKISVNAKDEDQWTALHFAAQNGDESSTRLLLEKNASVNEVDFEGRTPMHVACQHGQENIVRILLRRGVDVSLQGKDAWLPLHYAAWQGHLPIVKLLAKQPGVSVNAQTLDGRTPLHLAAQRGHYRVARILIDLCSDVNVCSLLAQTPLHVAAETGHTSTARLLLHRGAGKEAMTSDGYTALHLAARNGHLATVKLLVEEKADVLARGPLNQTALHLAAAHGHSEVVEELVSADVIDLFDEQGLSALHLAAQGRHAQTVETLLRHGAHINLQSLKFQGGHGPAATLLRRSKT
Chain of TRKB (Q16620 32-822): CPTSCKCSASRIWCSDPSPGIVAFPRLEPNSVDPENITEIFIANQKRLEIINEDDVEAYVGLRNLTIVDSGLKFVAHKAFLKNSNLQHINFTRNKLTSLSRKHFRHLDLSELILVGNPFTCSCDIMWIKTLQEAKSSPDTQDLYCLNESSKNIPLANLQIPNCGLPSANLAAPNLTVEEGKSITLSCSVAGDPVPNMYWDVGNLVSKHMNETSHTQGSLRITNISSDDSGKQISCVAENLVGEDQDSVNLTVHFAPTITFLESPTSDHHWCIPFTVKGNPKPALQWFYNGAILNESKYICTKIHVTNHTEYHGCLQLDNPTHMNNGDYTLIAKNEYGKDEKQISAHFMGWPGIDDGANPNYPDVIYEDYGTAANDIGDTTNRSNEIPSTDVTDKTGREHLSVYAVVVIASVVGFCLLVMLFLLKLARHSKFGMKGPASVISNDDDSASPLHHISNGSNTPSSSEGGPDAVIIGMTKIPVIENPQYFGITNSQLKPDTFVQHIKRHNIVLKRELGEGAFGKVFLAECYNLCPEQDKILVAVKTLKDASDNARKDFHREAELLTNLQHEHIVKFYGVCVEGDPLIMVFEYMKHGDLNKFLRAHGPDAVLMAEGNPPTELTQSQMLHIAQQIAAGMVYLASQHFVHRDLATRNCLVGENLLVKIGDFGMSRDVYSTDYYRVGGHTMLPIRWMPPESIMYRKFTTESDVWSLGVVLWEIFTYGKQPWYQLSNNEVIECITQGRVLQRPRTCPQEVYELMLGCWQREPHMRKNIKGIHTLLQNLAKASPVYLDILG
Chain of SPHK2 (Q9NRA0 whole entry): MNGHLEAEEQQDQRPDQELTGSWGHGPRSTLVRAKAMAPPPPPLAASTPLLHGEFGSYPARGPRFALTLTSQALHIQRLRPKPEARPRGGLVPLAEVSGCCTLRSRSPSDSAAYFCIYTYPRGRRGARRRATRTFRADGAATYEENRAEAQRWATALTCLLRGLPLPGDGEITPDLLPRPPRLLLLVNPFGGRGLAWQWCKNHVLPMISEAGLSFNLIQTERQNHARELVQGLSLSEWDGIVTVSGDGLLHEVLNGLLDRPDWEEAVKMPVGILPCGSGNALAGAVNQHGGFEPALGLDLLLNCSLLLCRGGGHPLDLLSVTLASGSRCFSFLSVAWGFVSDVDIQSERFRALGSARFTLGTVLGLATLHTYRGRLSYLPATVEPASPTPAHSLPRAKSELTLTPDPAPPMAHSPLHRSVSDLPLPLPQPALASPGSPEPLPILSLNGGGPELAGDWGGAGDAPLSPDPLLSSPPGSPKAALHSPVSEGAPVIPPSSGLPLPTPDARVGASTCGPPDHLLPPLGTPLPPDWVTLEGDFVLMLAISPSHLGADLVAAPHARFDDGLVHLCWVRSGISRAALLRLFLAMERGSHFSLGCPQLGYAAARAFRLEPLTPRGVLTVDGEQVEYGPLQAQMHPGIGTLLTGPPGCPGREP
Chain of CDK6 (Q00534 whole entry): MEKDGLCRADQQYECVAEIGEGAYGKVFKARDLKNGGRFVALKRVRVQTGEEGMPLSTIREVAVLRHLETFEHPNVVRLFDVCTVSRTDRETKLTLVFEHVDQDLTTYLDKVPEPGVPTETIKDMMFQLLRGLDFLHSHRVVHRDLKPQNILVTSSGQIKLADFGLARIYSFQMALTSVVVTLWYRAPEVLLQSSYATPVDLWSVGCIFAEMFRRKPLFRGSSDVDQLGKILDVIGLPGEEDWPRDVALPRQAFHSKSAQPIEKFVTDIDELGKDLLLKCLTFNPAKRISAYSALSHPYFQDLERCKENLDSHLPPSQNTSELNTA

For `CCCCCC(CC(=O)CCc1ccc(O)c(OC)c1)SCC(NC(=O)CCC(N)C(=O)O)C(=O)NCC(=O)O` (centres unmarked) [M13, 5-glutathione-6-shogaol], which solubility thermodynamic ([1]; Example 1) is on record?
Its solubility thermodynamic is 1390 µM (≈ 812 µg/mL).

And the solubility thermodynamic ([1]; as printed in Example 6)?
The solubility thermodynamic was 1390 µM (≈ 811 µg/mL).

And the inhibition at 20 µM (SPHK2)?
The inhibition at 20 µM was 30 to 45%.

What about the inhibition at 20 µM (CDK6) of the same molecule?
Its inhibition at 20 µM is 30 to 45%.

What about the inhibition at 20 µM (RIPK4) of the same molecule?
The inhibition at 20 µM was 30 to 45%.

And the inhibition at 20 µM (TRKB)?
The inhibition at 20 µM was 30 to 45%.

And the activity at 20 µM (NF-κB signaling pathway; M13 20 μM, TNF-α 10 ng/ml, 18 hours, read-out: RLU (% with TNFα))?
Its activity at 20 µM is 87.2 ± 8.29%.

And the activity at 50 µM (NF-κB signaling pathway; M13 50 μM, TNF-α 10 ng/ml, 18 hours, read-out: RLU (% with TNFα))?
Its activity at 50 µM is 9.75 ± 2.78%.

What about the activity at 100 µM (NF-κB signaling pathway; M13 100 μM, TNF-α 10 ng/ml, 18 hours, read-out: RLU (% with TNFα)) of the same molecule?
The activity at 100 µM was 0.81 ± 0.22%.

What about the IC50 (NF-κB signaling pathway; read-out: dose to reduce the NF-κB activation by 50%) of the same molecule?
The IC50 was roughly 29 µM.

What about the “proliferation of activated CD4+ and CD8+ lymphocytes” value (human T lymphocytes; activated-stage (with IL-2)) of the same molecule?
Its value is “reduced proliferation”.

What about the “percentages of CD4+ and CD8+ T-cell populations and T-cell proliferation status” value (human T lymphocytes; resting-stage (without IL-2)) of the same molecule?
Its value is “similar”.

And the “effect on the activities of 25 assorted targets from five target classes” value (25 selected targets)?
Its value is “did not have any significant effect”.

What about the “inhibition of GPCR targets, ion channel (5-HT3), phosphodiesterase, protease thrombin alpha” value (25 selected targets) of the same molecule?
The value was “did not inhibit”.

And the “modulation of the activity of the nuclear receptor AHR” value (25 selected targets)?
Its value is “did not significantly modulate”.

What about the IC50 (HIEC-6 cells; HIEC-6) of the same molecule?
Its IC50 is greater than 100 µM.

And the IC50 (HIEC-6 cells; HIEC-6, 24 h)?
Its IC50 is greater than 100 µM.

What about the “fold by which IC50 against HIEC-6 is higher” value (Caco-2/BBe cells; HIEC-6 vs Caco-2/BBe) of the same molecule?
The value was 6 fold.

What about the IC50 (Caco-2/BBe cells; Homo sapiens, Caco-2, 24 h) of the same molecule?
The IC50 was 16.7 µM.

And the minimal effective concentration ([2]; read-out: M13 concentration at which green fluorescence intensity is significantly lower than NC, live/dead staining)?
The minimal effective concentration was greater than 80 µM.

What about the EC50 ([2]; ATP content, extrapolated dose-response curve, read-out: half-maximal effective concentration (EC50)) of the same molecule?
The EC50 was 182 µM.

And the “22 cancer-related proteins, expression vs control group” value (cancer-related proteins)?
Its value is “significantly down-regulated”.

What about the bioactivity [3] of the same molecule?
Its bioactivity is “exhibited bioactivity”.
